Like-named read-outs stand apart in the source and are kept apart here.
Columns and labels:
Type in all cases: cell-based
HT-29 (colon) cells = experiment: MTS cell survival assay, HT-29 (colon); settings: 48 hours incubation, read-out: IC50 cell line HT-29
Method: (§1) Seed 96-well plates at a concentration of 5000 cells/well in a volume of 100 μl with A2780 (ovarian), HT-29 (colon), MDA-MB-231 (breast), NCI-H1299 (non-small cell lung, MCF-7 (breast) cells or any other available cancer cell line. Incubate for 24 hours at 37° C.
(§2) Prepare a stock solution of Tubulysin derivative by dissolving at 10 mg/ml in methanol. Prepare dilutions of 1 mg/ml in methanol and 17 μg/ml (20 μM) in cell culture medium, and make serial 10-fold dilutions down to 2 pM in cell culture medium.
(§3) Add 100 μl of Tubulysin to triplicate wells for a final dose range of 1 pM to 10 μM. Reserve three wells for “untreated” cells and three wells of medium alone as a “blank”. Incubate plates at 37° C. for 48 hours.
(§4) Prepare MTS assay reagent by diluting CellTiter 96 AQueous One Solution (Promega) 5-fold into PBS/glucose (4.5 g/L). Aspirate cell culture medium. Aliquot 100 μl of MTS reagent to each well. Incubate at 37° C. for 1-2 hours depending on the cell line.
(§5) Shake the plates for 5 minutes and measure the absorbance at 485 nm using a plate reader (e.g. Tecan). Enter the raw data into an excel spreadsheet to obtain the % cell survival for each cell line. Graph dose (nM) vs. % cell survival and estimate IC50s from the graphs.
(§6) Use a 4-parameter logistic fit to obtain IC50 values: y=(a−d)/(1+(x/c)^b)+d • where • x=dose • y=% cell survival • a=lower asymptote • b=slope • c=IC50 • d=upper asymptote
(§7) Enter values for x and y. Estimate values for a, b, c, and d. Run the solver tool on the sum of squared errors cell. Minimize the sum of squared errors by varying parameters a through d. Obtain the IC50 (nM) from parameter c.

A2780 (ovarian) cells = experiment: MTS cell survival assay, A2780 (ovarian); settings: 48 hours incubation, read-out: IC50 cell line A2780
Method: as §1, §2, §3, §4, §5, §6, §7

MCF-7 (breast) cells = experiment: MTS cell survival assay, MCF-7 (breast); settings: read-out: IC50 cell line MCF-7
Method: as §1, §2, §3, §4, §5, §6, §7

[1] = tested on: NCI-H1299 (non-small cell lung) cells; experiment: MTS cell survival assay, NCI-H1299 (non-small cell lung); settings: Homo sapiens, 48 hours incubation, read-out: IC50 cell line NCI-H1299
Method: as §1, §2, §3, §4
Shake the plates for 5 minutes and measure the absorbance at 485 nm using a plate reader (e.g. Tecan). Enter the raw data into an excel spreadsheet to obtain the % cell survival for each cell line. Graph dose (nM) vs. % cell survival and estimate IC50s from the graphs. […]

[2] = Homo sapiens, MCF7, 48 hours incubation

| Structure (SMILES) | IC50 (HT-29 (colon) cells; Homo sapiens) [nM] | IC50 (A2780 (ovarian) cells; Homo sapiens) [nM] | IC50 (MCF-7 (breast) cells; [2]) [nM] | other results |
| --- | --- | --- | --- | --- |
| CC[C@H](C)C(NC(=O)C1CCCCN1C)C(=O)N(COC(=O)CC(C)C)[C@H](C[C@@H](OC(C)=O)c1nc(C(=O)N[C@@H](Cc2ccc(O)cc2)C[C@H](C)C(=O)O)cs1)C(C)C (stereo partly shown) |  |  |  | IC50 (HT-29 (colon) cells): 0.75 nM; IC50 (A2780 (ovarian) cells): 0.8 nM; IC50 (MCF-7 (breast) cells; 48 hours incubation): 0.6 nM |
| CC[C@H](C)C(NC(=O)C1CCCCN1C)C(=O)N(C)[C@H](C[C@@H](OC(C)=O)c1nc(C(=O)N[C@@H](Cc2ccc(F)cc2)C[C@H](C)C(=O)O)cs1)C(C)C (stereo partly shown) | 3 | 0.8 |  | IC50 [1]: 1.93 nM |
| CCCN(C(=O)C(NC(=O)C1CCCCN1C)[C@@H](C)CC)[C@H](C[C@@H](OC(C)=O)c1nc(C(=O)N[C@@H](Cc2ccc(F)cc2)C[C@H](C)C(=O)O)cs1)C(C)C (stereo partly shown) | 0.48 | 0.3 | 0.4 | IC50 [1]: 0.52 nM |
| CCCCCCN(C(=O)C(NC(=O)C1CCCCN1C)[C@@H](C)CC)[C@H](C[C@@H](OC(C)=O)c1nc(C(=O)N[C@@H](Cc2ccc(OC)cc2)C[C@H](C)C(=O)O)cs1)C(C)C (stereo partly shown) | 0.43 |  |  |  |
| CCCCCN(C(=O)C(NC(=O)C1CCCCN1C)[C@@H](C)CC)[C@H](C[C@@H](OC(C)=O)c1nc(C(=O)N[C@@H](Cc2ccc(F)cc2)C[C@H](C)C(=O)O)cs1)C(C)C (stereo partly shown) | 0.35 |  | 0.6 |  |
| CCCN(C(=O)C(NC(=O)C1CCCCN1C)[C@@H](C)CC)[C@H](C[C@@H](OC(C)=O)c1nc(C(=O)N[C@@H](Cc2ccc(-c3ccccc3)cc2)C[C@H](C)C(=O)O)cs1)C(C)C (stereo partly shown) | 0.28 |  | 0.4 |  |
| CC[C@H](C)C(NC(=O)C1CCCN1C)C(=O)N(C)[C@H](C[C@@H](OC(C)=O)c1nc(C(=O)N[C@@H](Cc2ccc(F)cc2)C[C@H](C)C(=O)O)cs1)C(C)C (stereo partly shown) | 3.1 |  | 1.1 |  |
| CC[C@H](C)C(NC(=O)C1CCCN1C)C(=O)N(C)[C@H](C[C@@H](OC(C)=O)c1nc(C(=O)N[C@@H](Cc2ccc(N(C)C)cc2)C[C@H](C)C(=O)O)cs1)C(C)C (stereo partly shown) | 2.1 | 0.7 |  |  |
| CC[C@H](C)C(NC(=O)C1CCCCN1C)C(=O)N(C)[C@H](C[C@@H](OC(C)=O)c1nc(C(=O)N[C@@H](Cc2ccc(OC)cc2)C[C@H](C)C(=O)O)cs1)C(C)C (stereo partly shown) | 2 | 0.8 | 0.6 |  |
| CC[C@H](C)C(NC(=O)C1CCCCN1C)C(=O)N(C)[C@H](C[C@@H](OC(C)=O)c1nc(C(=O)N[C@@H](Cc2ccc(-c3ccccc3)cc2)C[C@H](C)C(=O)O)cs1)C(C)C (stereo partly shown) | 2.3 | 1.4 |  |  |
| CC[C@H](C)C(NC(=O)C1CCCCN1C)C(=O)N(COCC(C)C)[C@H](C[C@@H](OC(C)=O)c1nc(C(=O)N[C@@H](Cc2ccc(F)cc2)C[C@H](C)C(=O)O)cs1)C(C)C (stereo partly shown) | 3.5 | 0.9 | 1.1 |  |
| CCCN(C(=O)C(NC(=O)C1CCCCN1C)[C@@H](C)CC)[C@H](C[C@@H](OC(C)=O)c1nc(C(=O)N[C@H](CCC(=O)O)Cc2ccc(F)cc2)cs1)C(C)C (stereo partly shown) | 0.49 | 0.3 |  |  |
| CCCN(C(=O)C(NC(=O)C1CCCCN1C)[C@@H](C)CC)[C@H](CCc1nc(C(=O)N[C@H](CCC(=O)O)Cc2ccccc2)cs1)C(C)C (stereo partly shown) | 3.1 | 1.1 |  |  |
| CC(=O)O[C@H](C[C@H](C(C)C)N(COC(=O)c1ccccc1)C(=O)C(NC(=O)C1CCCCN1C)C(C)C)c1nc(C(=O)N[C@H](CCC(=O)O)Cc2ccc(F)cc2)cs1 (stereo partly shown) | 0.45 |  | 0.4 |  |
| CC[C@H](C)C(NC(=O)C1CCCCN1C)C(=O)N(CC)[C@H](C[C@@H](O)c1nc(C(=O)N[C@H](CCN)Cc2ccc(F)cc2)cs1)C(C)C (stereo partly shown) | 23 |  | 15.2 |  |
| CCCN(C(=O)C(NC(=O)C1CCCCN1C)[C@@H](C)CC)[C@H](CCc1nc(C(=O)N[C@H](CCCO)Cc2ccccc2)cs1)C(C)C (stereo partly shown) | 4.3 | 1.6 |  |  |
